Test results from PubChem BioAssay (NCI).
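96-well plates; 48 h exposure; 5 concentrations. Endpoints by linear interpolation between flanking doses. Not reached: highest tested concentration assigned. TGI denotes the concentration required for complete inhibition of growth.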

Columns and labels:
Assay in all cases: NCI anticancer screen, dose series, 48 h
A498 renal = tested on: A498 renal
COLO 205 colon = tested on: COLO 205 colon
HCT-116 colon = tested on: HCT-116 colon
HT29 colon = tested on: HT29 colon
IGROV1 ovarian = tested on: IGROV1 ovarian
MDA-MB-231 breast = tested on: MDA-MB-231 breast
MDA-MB-435 = tested on: MDA-MB-435
NCI-H522 lung = tested on: NCI-H522 lung
PC-3 prostate = tested on: PC-3 prostate
RXF 393 renal = tested on: RXF 393 renal
SF-539 CNS = tested on: SF-539 CNS
SK-MEL-5 melanoma = tested on: SK-MEL-5 melanoma
SK-OV-3 ovarian = tested on: SK-OV-3 ovarian
SNB-19 CNS = tested on: SNB-19 CNS
SR leukemia = tested on: SR leukemia
UACC-257 melanoma = tested on: UACC-257 melanoma
HCC-2998 colon = tested on: HCC-2998 colon

SMILES | TGI (A498 renal) | TGI (COLO 205 colon) | TGI (HCT-116 colon) | TGI (HT29 colon) | TGI (IGROV1 ovarian) | TGI (MDA-MB-231 breast) | TGI (MDA-MB-435) | TGI (NCI-H522 lung) | TGI (PC-3 prostate) | TGI (RXF 393 renal) | TGI (SF-539 CNS) | TGI (SK-MEL-5 melanoma) | TGI (SK-OV-3 ovarian) | TGI (SNB-19 CNS) | TGI (SR leukemia) | TGI (UACC-257 melanoma) | TGI (HCC-2998 colon)
Nc1ncc2c(n1)-c1ccccc1OC2N1CCCCC1 (stereo not given) | > 100 µM | > 100 µM | > 100 µM | > 100 µM | > 100 µM | > 100 µM | > 100 µM | > 100 µM | > 100 µM | > 100 µM | > 100 µM | > 100 µM | > 100 µM | > 100 µM | > 100 µM | > 100 µM | –
Cc1nn(C(=O)Cc2ccccc2)c2c1C(c1ccccc1)SC(N)=N2 (stereo not given) | > 100 µM | > 100 µM | > 100 µM | > 100 µM | > 100 µM | > 100 µM | > 100 µM | > 100 µM | > 100 µM | – | > 100 µM | > 100 µM | > 100 µM | > 100 µM | > 100 µM | > 100 µM | > 100 µM
COc1ccc(C(SCCO)(c2ccccc2)c2ccc(OC)cc2)cc1 | 27.1 µM | 36.2 µM | 22.2 µM | 29.1 µM | 46.2 µM | 25.4 µM | 20.5 µM | 24.9 µM | 28.9 µM | 17.7 µM | 31.2 µM | 21.1 µM | 35.4 µM | 22.8 µM | – | 30.5 µM | 15.2 µM
N#C/C(N)=C(\C#N)NC=NCCO | > 100 µM | > 100 µM | > 100 µM | > 100 µM | > 100 µM | > 100 µM | > 100 µM | > 100 µM | > 100 µM | – | > 100 µM | > 100 µM | > 100 µM | > 100 µM | > 100 µM | > 100 µM | > 100 µM
C[C@]12[C@@H]3CC[C@H]1[C@@H](O)C(=O)N2CC3 | > 100 µM | > 100 µM | > 100 µM | > 100 µM | > 100 µM | > 100 µM | > 100 µM | > 100 µM | > 100 µM | > 100 µM | – | > 100 µM | > 100 µM | > 100 µM | > 100 µM | > 100 µM | > 100 µM
CCOC(=O)c1ccc(-c2cc(C)no2)[nH]1 | > 100 µM | > 100 µM | > 100 µM | > 100 µM | > 100 µM | > 100 µM | 29.3 µM | > 100 µM | > 100 µM | > 100 µM | > 100 µM | > 100 µM | > 100 µM | > 100 µM | – | > 100 µM | –
O=C1/C(=C/c2ccco2)NC(=S)N1CN1CCCCC1 | > 100 µM | > 100 µM | > 100 µM | > 100 µM | > 100 µM | > 100 µM | > 100 µM | > 100 µM | > 100 µM | – | – | > 100 µM | > 100 µM | > 100 µM | > 100 µM | – | –
Cc1cn(C2OC(CO[Si](C)(C)C(C)(C)C)C(N(C)O[Si](C)(C)C(C)(C)C)C2[Se]c2ccccc2)c(=O)[nH]c1=O (stereo not given) | 49.5 µM | > 100 µM | 19.9 µM | 16.8 µM | 28.2 µM | 43.8 µM | 21 µM | 11.6 µM | 34 µM | – | – | 53.7 µM | > 100 µM | 32.2 µM | > 100 µM | – | 0.491 µM
O=c1[nH]c(=O)c2c3n(cc2[nH]1)CCCCC3 | > 100 µM | > 100 µM | > 100 µM | > 100 µM | > 100 µM | > 100 µM | > 100 µM | > 100 µM | > 100 µM | > 100 µM | – | > 100 µM | > 100 µM | > 100 µM | > 100 µM | > 100 µM | > 100 µM
COC(=O)[C@]1(C)CCC[C@@]2(C)C1CC[C@@]13C=C(C(C)C)[C@@H](CC1=O)CC23 (stereo not given in full) | – | – | 42 µM | 40.5 µM | > 100 µM | 95.7 µM | > 100 µM | 38.5 µM | > 100 µM | 41.2 µM | 37.5 µM | 33 µM | > 100 µM | 73.4 µM | 30.9 µM | 62.4 µM | > 100 µM
CSC(=O)c1sc(SC)[n+](-c2ccccc2)c1O | > 100 µM | > 100 µM | 32.6 µM | 46.5 µM | 37.2 µM | 39 µM | 35.5 µM | 24.8 µM | 29.8 µM | 28 µM | 29.5 µM | 55.7 µM | > 100 µM | 35.7 µM | > 100 µM | – | 44.8 µM
C(=C/CCCN1O[C@@H](CCCCCCCCc2cccnc2)[C@H]2CCC[C@H]21)/CCCCCCCCCc1cccnc1 | 45.5 µM | 30.9 µM | 40.4 µM | 61.1 µM | 79.4 µM | 36.9 µM | 38 µM | – | 46.1 µM | 32.9 µM | 34.9 µM | 43.7 µM | 47.2 µM | 85 µM | 51.5 µM | 41.7 µM | –
O=C(O)Cc1ccc([N+](=O)[O-])cc1[N+](=O)[O-] | > 100 µM | > 100 µM | > 100 µM | > 100 µM | > 100 µM | > 100 µM | > 100 µM | > 100 µM | > 100 µM | > 100 µM | > 100 µM | > 100 µM | > 100 µM | > 100 µM | – | > 100 µM | –
COc1ccc(C2=CC(C(C)=C(C(N)=O)C(N)=O)C=C(c3ccc(Br)cc3)C2)c(OC)c1 (stereo not given) | > 100 µM | > 100 µM | > 100 µM | > 100 µM | > 100 µM | > 100 µM | > 100 µM | > 100 µM | > 100 µM | > 100 µM | – | > 100 µM | > 100 µM | > 100 µM | > 100 µM | > 100 µM | > 100 µM
